Results: PubChem BioAssay AID330 (DTP/NCI, 2004)
Where “and” joins values, the source holds several entries; their conditions need not be identical. Equal values may be shown once. Toxic doses and inconclusive results are not listed. How the source made its calls: active means survival T/C of 150% or more; inactive means T/C below 125% in these data.

System: P388 leukemia ip, CD2F1 mice, survival T/C
Experiment: NCI In Vivo Anticancer Drug Screen. Data for tumor model P388 Leukemia (intraperitoneal) in CD2F1 (CDF1) mice
Conditions: endpoint: median survival time, higher = longer survival
Procedure, shortened: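 Mice carrying the transplanted tumor received test compound or vehicle. Survival was recorded in each group, and the value is the treated-group measurement divided by that of the vehicle-treated control group.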

[1] = dose: 50.0 mg/kg/injection, schedule: Q01DX005 (ip), vehicle: Klucel (hydroxypropylcellulose) (HPC)
[2] = dose: 100.0 mg/kg/injection, schedule: Q01DX005 (ip), vehicle: Klucel (hydroxypropylcellulose) (HPC)
[3] = dose: 200.0 mg/kg/injection, schedule: Q01DX005 (ip), vehicle: Klucel (hydroxypropylcellulose) (HPC)
[4] = dose: 50.0 mg/kg/injection, schedule: Q01DX009 (ip), vehicle: Klucel (hydroxypropylcellulose) (HPC)
[5] = dose: 100.0 mg/kg/injection, schedule: Q01DX009 (ip), vehicle: Klucel (hydroxypropylcellulose) (HPC)
[6] = dose: 200.0 mg/kg/injection, schedule: Q01DX009 (ip), vehicle: Klucel (hydroxypropylcellulose) (HPC)
[7] = dose: 12.5 mg/kg/injection, schedule: Q01DX009 (ip), vehicle: water
[8] = dose: 25.0 mg/kg/injection, schedule: Q01DX009 (ip), vehicle: water

Measured: T/C

CC1(C)N=C(N)N=C(N)N1c1cccc(CCCCc2cccc(S(=O)(=O)F)c2)c1
inactive: dose: 3.9 mg/kg/injection, schedule: Q04DX003 (ip), vehicle: saline with Tween-80 122 % of control | dose: 25.0 mg/kg/injection, schedule: Q04DX003 (ip), vehicle: saline with Tween-80 95 % of control | dose: 50.0 mg/kg/injection, schedule: Q04DX003 (ip), vehicle: saline with Tween-80 90 % of control

CN1CCc2c1cc(-c1ccco1)c1c2N(C)CC1
inactive: [1] 104 % of control | [2] 111 % of control | [3] 107 % of control

CCOC(=O)c1ccccc1SC(C[N+](=O)[O-])c1ccccc1 (centres undefined)
inactive: [4] 105 % of control | [5] 110 % of control | [6] 110 % of control

C[C@@H]1C[C@@H]([C@H](O)CC2CC(=O)NC(=O)C2)C(=O)[C@@H](C)C1
inactive: dose: 3.89 mg/kg/injection, schedule: Q01DX009 (ip), vehicle: Klucel (hydroxypropylcellulose) (HPC) 99 % of control and 108 % of control | dose: 6.48 mg/kg/injection, schedule: Q01DX009 (ip), vehicle: Klucel (hydroxypropylcellulose) (HPC) 102 % of control and 104 % of control | dose: 10.8 mg/kg/injection, schedule: Q01DX009 (ip), vehicle: Klucel (hydroxypropylcellulose) (HPC) 104 % of control and 117 % of control | [7] 108 % of control and 115 % of control | dose: 18.0 mg/kg/injection, schedule: Q01DX009 (ip), vehicle: Klucel (hydroxypropylcellulose) (HPC) 106 % of control and 94 % of control | dose: 20.0 mg/kg/injection, schedule: Q01DX009 (ip), vehicle: water 92 % of control | dose: 23.3 mg/kg/injection, schedule: Q04DX003 (ip), vehicle: Klucel (hydroxypropylcellulose) (HPC) 102 % of control and 104 % of control | [8] 117 % of control | dose: 30.0 mg/kg/injection, schedule: Q01DX009 (ip), vehicle: Klucel (hydroxypropylcellulose) (HPC) 113 % of control and 117 % of control | dose: 30.0 mg/kg/injection, schedule: Q01DX009 (ip), vehicle: water 95 % of control | dose: 38.9 mg/kg/injection, schedule: Q04DX003 (ip), vehicle: Klucel (hydroxypropylcellulose) (HPC) 111 % of control and 97 % of control | dose: 40.0 mg/kg/injection, schedule: Q01DX009 (ip), vehicle: water 100 % of control | dose: 50.0 mg/kg/injection, schedule: Q01DX009 (ip), vehicle: water 99 % of control | dose: 64.8 mg/kg/injection, schedule: Q04DX003 (ip), vehicle: Klucel (hydroxypropylcellulose) (HPC) 104 % of control and 95 % of control | dose: 80.0 mg/kg/injection, schedule: Q01DX009 (ip), vehicle: water 109 % of control | dose: 100.0 mg/kg/injection, schedule: Q01DX001 (ip), vehicle: saline 110 % of control | dose: 108.0 mg/kg/injection, schedule: Q04DX003 (ip), vehicle: Klucel (hydroxypropylcellulose) (HPC) 109 % of control | dose: 120.0 mg/kg/injection, schedule: Q01DX009 (ip), vehicle: water 92 % of control | dose: 125.0 mg/kg/injection, schedule: Q01DX001 (ip), vehicle: saline 113 % of control | dose: 150.0 mg/kg/injection, schedule: Q01DX001 (ip), vehicle: saline 112 % of control | dose: 175.0 mg/kg/injection, schedule: Q01DX001 (ip), vehicle: saline 112 % of control | dose: 180.0 mg/kg/injection, schedule: Q04DX003 (ip), vehicle: Klucel (hydroxypropylcellulose) (HPC) 97 % of control | dose: 200.0 mg/kg/injection, schedule: Q01DX001 (ip), vehicle: saline 112 % of control

C=C1C[C@@]2(OC)OCC[C@H]3C(C)=CCC(C1=O)[C@]32C(=O)OC (some centres undefined)
inactive: dose: 50.0 mg/kg/injection, schedule: Q01DX005 (ip), vehicle: saline with Tween-80 105 % of control | dose: 100.0 mg/kg/injection, schedule: Q01DX005 (ip), vehicle: saline with Tween-80 105 % of control

O=[N+]([O-])c1ccc2c(NCCCCCCNc3c4ccccc4nc4cc([N+](=O)[O-])ccc34)c3ccccc3nc2c1
inactive: dose: 0.63 mg/kg/injection, schedule: Q01DX009 (ip), vehicle: other 121 % of control

CCCCCC1(CCCCCCCC(=O)OCC)OCCO1
inactive: dose: 100.0 mg/kg/injection, schedule: Q04DX003 (ip), vehicle: Klucel (hydroxypropylcellulose) (HPC) 97 % of control | dose: 200.0 mg/kg/injection, schedule: Q04DX003 (ip), vehicle: Klucel (hydroxypropylcellulose) (HPC) 103 % of control | dose: 400.0 mg/kg/injection, schedule: Q04DX003 (ip), vehicle: Klucel (hydroxypropylcellulose) (HPC) 97 % of control

CCCCCCC(=O)OCCN1CCN(CC/C=C2\c3ccccc3Sc3ccc(C(F)(F)F)cc32)CC1
inactive: dose: 12.5 mg/kg/injection, schedule: Q01DX009 (ip), vehicle: saline 100 % of control and 95 % of control | dose: 12.5 mg/kg/injection, schedule: Q01DX009 (ip), vehicle: suspension in saline 98 % of control | dose: 25.0 mg/kg/injection, schedule: Q01DX009 (ip), vehicle: saline 112 % of control | dose: 25.0 mg/kg/injection, schedule: Q01DX009 (ip), vehicle: suspension in saline 102 % of control and 94 % of control | dose: 50.0 mg/kg/injection, schedule: Q01DX009 (ip), vehicle: saline 106 % of control and 95 % of control | dose: 50.0 mg/kg/injection, schedule: Q01DX009 (ip), vehicle: suspension in saline 100 % of control and 123 % of control and 92 % of control | dose: 100.0 mg/kg/injection, schedule: Q01DX009 (ip), vehicle: saline 99 % of control and 113 % of control | dose: 100.0 mg/kg/injection, schedule: Q01DX009 (ip), vehicle: suspension in saline 107 % of control (2×) and 92 % of control

Cc1c(-c2ccccc2)nn(CC(=O)O)c(=O)c1C#N
inactive: dose: 37.5 mg/kg/injection, schedule: Q04DX002 (ip), vehicle: alkali diluted with water 106 % of control | dose: 75.0 mg/kg/injection, schedule: Q04DX002 (ip), vehicle: alkali diluted with water 104 % of control | dose: 150.0 mg/kg/injection, schedule: Q04DX002 (ip), vehicle: alkali diluted with water 106 % of control | dose: 300.0 mg/kg/injection, schedule: Q04DX002 (ip), vehicle: alkali diluted with water 103 % of control

CCCCCN(CCCCC)C(C)C(=O)c1ccc(Cl)cc1 (centres undefined)
inactive: [1] 100 % of control | [2] 100 % of control | [3] 100 % of control

CC(C)c1ccc(C(=O)CCCCl)cc1
inactive: dose: 100.0 mg/kg/injection, schedule: Q04DX003 (ip), vehicle: saline with Tween-80 109 % of control | dose: 200.0 mg/kg/injection, schedule: Q04DX003 (ip), vehicle: saline with Tween-80 100 % of control | dose: 400.0 mg/kg/injection, schedule: Q04DX003 (ip), vehicle: saline with Tween-80 104 % of control

CC(=O)OC1C2CC(Cl)C1C2 (centres undefined)
inactive: dose: 50.0 mg/kg/injection, schedule: Q01DX009 (ip), vehicle: saline with Tween-80 100 % of control | dose: 100.0 mg/kg/injection, schedule: Q01DX009 (ip), vehicle: saline with Tween-80 109 % of control | dose: 200.0 mg/kg/injection, schedule: Q01DX009 (ip), vehicle: saline with Tween-80 105 % of control

COc1cc2cc[n+](C)cc2cc1OC
inactive: dose: 6.25 mg/kg/injection, schedule: Q01DX009 (ip), vehicle: water 90 % of control | [7] 102 % of control | dose: 22.0 mg/kg/injection, schedule: Q01DX009 (ip), vehicle: water 121 % of control | [8] 107 % of control | dose: 33.0 mg/kg/injection, schedule: Q01DX009 (ip), vehicle: water 115 % of control | dose: 75.0 mg/kg/injection, schedule: Q01DX009 (ip), vehicle: water 121 % of control | dose: 100.0 mg/kg/injection, schedule: Q01DX009 (ip), vehicle: water 123 % of control

CCn1c(=O)c2[nH]c(-n3c(Cl)nc4c3c(=O)n(CC)c(=O)n4CC)nc2n(CC)c1=O
inactive: [4] 101 % of control | [5] 98 % of control | [6] 120 % of control
